Experiments:
Settings in all cases: 72 h
HL-60 [1] = test: area under dose-response curve (viability, 1 nM-10 uM) (fraction (0-1)); higher = more sensitive
Summary of the method: (§1)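 HL-60 cells in RPMI 1640 with 10% FBS were rescreened against the full library on 384-well plates at five tenfold concentrations, 1–10,000 nM, in duplicate. Each screen was run with DMSO or 100 nM of one of three metabolic inhibitors, for 72 h at 37 °C, 5% CO2. Viability was read by CellTiter-Glo and normalised to DMSO and 10 μM proteasome-inhibitor wells. Where given, area under the curve came from four-parameter log-logistic fits (drc, PharmacoGx).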

MV4-11 [2] = tested on: MV4-11
Summary of the method: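 The IC50 was derived from log-logistic dose–response fitting. Each of fifteen myeloid leukaemia cell lines, seeded in RPMI 1640 within its linear growth range, was exposed in 384-well plates to five tenfold doses (1 to 10,000 nM) in duplicate for 72 h at 37 °C and 5% CO2. Luminescent ATP viability readings were normalised to vehicle and to a positive control at 10 µM before four-parameter curve fitting.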

HL-60 [3] = test: cell viability (% survival relative to DMSO control); higher = less cytotoxic
Summary of the method: as §1

HEL = test: cell viability (% survival relative to DMSO control, bortezomib = 0%); higher = less cytotoxic
Summary of the method: (§2)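 Reported values are percent survival from duplicate wells, averaged. Fifteen myeloid leukaemia cell lines were treated in 384-well plates with compounds at 1, 10, 100, 1000 or 10000 nM for 72 h at 37 °C in 5% CO2. Signals from CellTiter-Glo luminescence were scaled with vehicle as 100% and a 10 µM positive control as 0%.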

MV4-11 [4] = test: as above
Summary of the method: as §2

BV-173 = test: as above
Summary of the method: as §2

MOLM-13 = test: as above
Summary of the method: as §2

KU-812 = test: as above
Summary of the method: as §2

NOMO-1 = test: as above
Summary of the method: as §2

KG-1 = test: as above
Summary of the method: as §2

HL-60 [5] = test: as above
Summary of the method: as §2

KCL-22 = test: as above
Summary of the method: as §2

LAMA-84 = test: as above
Summary of the method: as §2

THP-1 = test: as above
Summary of the method: as §2

ML-2 = test: as above
Summary of the method: as §2

SHI-1 = test: as above
Summary of the method: as §2

Mono-Mac-6 = test: as above
Summary of the method: as §2

K-562 = test: as above
Summary of the method: as §2

O=C(O)c1cc(N=Nc2ccc(S(=O)(=O)Nc3ccccn3)cc2)ccc1O [Sulfasalazine]
Settings | area under dose-response curve, co-treatment: AZD3965 100 nM | area under dose-response curve, co-treatment: DMSO vehicle | area under dose-response curve, co-treatment: GSK2194069 100 nM | area under dose-response curve, co-treatment: pictilisib 100 nM | cell viability, 1 nM [%] | cell viability, 10 nM [%] | cell viability, 100 nM [%] | cell viability, 1000 nM [%] | cell viability, 10000 nM [%]
BV-173 | – | – | – | – | 106 | 90.3 | 113 | 99.7 | 112
HEL | – | – | – | – | 111 | 91.9 | 114 | 94 | 111
HL-60 [1] | < 0.0301 | < 0.0301 | < 0.0301 | < 0.0301 | – | – | – | – | –
HL-60 [5] | – | – | – | – | 99.4 | 71.4 | 135 | 106 | 70.8
K-562 | – | – | – | – | 100 | 91.6 | 120 | 90.3 | 131
KCL-22 | – | – | – | – | 107 | 97.3 | 106 | 92.9 | 124
KG-1 | – | – | – | – | 103 | 89 | 112 | 43.4 | 128
KU-812 | – | – | – | – | 110 | 98.2 | 107 | 108 | 102
LAMA-84 | – | – | – | – | 105 | 97.1 | 101 | 106 | 105
ML-2 | – | – | – | – | 106 | 87.4 | 118 | 112 | 102
MOLM-13 | – | – | – | – | 105 | 102 | 113 | 84.6 | 136
MV4-11 [4] | – | – | – | – | 101 | 89.1 | 112 | 95.9 | 103
Mono-Mac-6 | – | – | – | – | 105 | 92.7 | 120 | 103 | 104
NOMO-1 | – | – | – | – | 112 | 101 | 99 | 101 | 102
SHI-1 | – | – | – | – | 107 | 87.6 | 114 | 97.8 | 95.7
THP-1 | – | – | – | – | 107 | 101 | 106 | 101 | 106

Settings | IC50 (cell viability) [µM]
MV4-11 [2] | > 10

cell viability [%], HL-60 [3]
Settings | 0.001 µM | 0.01 µM | 0.1 µM | 1 µM | 10 µM
co-treatment: AZD3965 100 nM | 101.5 | 109 | 96 | 97.23 | 111
co-treatment: DMSO vehicle | 101 | 101.7 | 98.9 | 100.2 | 104
co-treatment: GSK2194069 100 nM | 105 | 103 | 101 | 103 | 105
co-treatment: pictilisib 100 nM | 107 | 103 | 93.57 | 92.3 | 112

From the supplement of paper PMC8671470
